Results published in EP2952497A1, “Method for neutralizing detrimental effects of thiolbearing compounds on metal catalysts” (Universität Basel, priority 2014, dated 2015).

What was measured:
[1] = screening of GSH neutralizing agents in GSH-spiked solutions before imine reduction; assay type: biochemical; conditions: for compatibility with the catalytic systems: solutions with or without Sav isoform, with or without 2.5 mmol/l GSH; for efficacy as GSH neutralizing agent: solutions spiked with 2.5 mmol/l GSH, incubated with agent before adding Ir-catalyst, reaction 2 days
Method: Michael acceptors and oxidizing agents known to react with GSH were selected to yield the corresponding thioether and disulfide, respectively. The following Michael acceptors were tested: maleinimide (Malln), 2-bromo-1-phenylethanone (BrPheOne), phenyl-vinylsulfone (PheViSul) and 3-Phenyl-2-propynenitrile (PhePropNit). The following oxidizing agents were selected: oxone (Ox), 1,4-benzoquinone (BQ), K3[Fe(CN)6] Fe^3+, and diamide (DiAm) (figure 2). For this purpose, solutions either with or without a Sav isoform were spiked with 2.5 mmol/l GSH and incubated overnight in presence of different concentrations of a particular GSH neutralizing agent before adding the Ir-catalyst. The reactions were initiated by addition of the imine substrate and run for 2 days (see Table 2).
An equimolar amount has no benefit on the reaction whereas four equivalents led to a decrease in conversion and enantioselectivity in the case of the S112K mutant. • 4) Despite the fact that H2O2 is commonly used to oxidize GSH, Ox was favoured for this purpose. […] Increasing the concentration of the GSH neutralizing agents leads to less consistent results. The outcome of the reaction depends on the Sav-mutant (if any) is used. […] A similar behaviour is observed with BrPheOne when no Sav or the S112K mutant was present.

[2] = system: living cells, including E. coli; conditions: cited from earlier work
[3] = system: [Cp*Ir(biot-p-L)Cl] c S112A Sav (streptavidin variant S112A, SEQ ID NO 1); conditions: 2.5 mM GSH; substrate 10 mM; purified Sav; RT, 48 h
Method: (§1) Initial experiments were performed using 50 µmol/l [Cp*Ir(biot-p-L)Cl], 100 µmol/l biotin binding sites (i.e. 25 µmol/l tetrameric Sav), 1 M HCO2Na in MOPS buffer ([…], pH 7) (see scheme 1). For comparison purposes, the imine reduction was performed with [Cp*Ir(biot-p-L)Cl]; [Cp*Ir(biot-p-L)Cl] c S112A Sav and [Cp*Ir(biot-p-L)Cl] c S112K Sav, cf. scheme 1.
(§2) Without wishing to be bound by theory, the inventors speculate that oxidizing GSH or derivatizing its thiol function could -at least partially- prevent inhibition of the hybrid catalysts.

[4] = system: [Cp*Ir(biot-p-L)Cl] c S112K Sav (streptavidin variant S112K, SEQ ID NO 2); conditions: 2.5 mM GSH; substrate 10 mM; purified Sav; RT, 48 h
Method: as §1, §2

[5] = system: [Cp*Ir(biot-p-L)Cl] c S112A Sav ATHase (streptavidin variant S112A, SEQ ID NO 1); conditions: substrate not given, taken as the imine (salsolidine precursor); cited from earlier work
[6] = system: [Cp*Ir(biot-p-L)Cl] c S112K Sav ATHase (streptavidin variant S112K, SEQ ID NO 2); conditions: substrate not given, taken as the imine (salsolidine precursor); cited from earlier work

Molecule: O=C1C=CC(=O)C=C1 [BQ, 1,4-benzoquinone]
- compatibility with the catalytic systems [1]: not compatible with any of the three catalytic systems

Molecule: O=C(CBr)c1ccccc1 [BrPheOne, 2-bromo-1-phenylethanone]
- efficacy as GSH neutralizing agent [1]: most effective GSH neutralizing agents

Molecule: CN(C)C(=O)/N=N/C(=O)N(C)C [DiAm, diamide]
- efficacy as GSH neutralizing agent [1]: most effective GSH neutralizing agents
- compatibility with the catalytic systems [1]: fully compatible with the artificial metalloenzymes
- compatibility with living cells [2]: causing neither lysis nor death

Molecule: N[C@@H](CCC(=O)N[C@@H](CS)C(=O)NCC(=O)O)C(=O)O [GSH, glutathione]
- inhibition of reduction of the salsolidine precursor [3]: no activity
- inhibition of reduction of the salsolidine precursor [4]: no activity

Molecule: O=C1C=CC(=O)N1 [Malln, maleinimide]
- compatibility with the catalytic systems [1]: limited compatibility

Molecule: N#CC#Cc1ccccc1 [PhePropNit, 3-Phenyl-2-propynenitrile]
- efficacy as GSH neutralizing agent [1]: most effective when applied at a ratio PhePropNit/GSH 2:1

Molecule: C=CS(=O)(=O)c1ccccc1 [PheViSul, phenyl-vinylsulfone]
- efficacy as GSH neutralizing agent [1]: most effective GSH neutralizing agents
- compatibility with the catalytic systems [1]: does not affect the free Ir-complex

Molecule: COc1cc2c(cc1OC)C(C)=NCC2 [salsolidine precursor, 1-methyl-6,7-dimethoxy-3,4-dihydroisoquinoline]
- kcat [5]: 0.19 s⁻¹
- kcat [6]: 0.0433 s⁻¹

Molecule: oxone
- efficacy as GSH neutralizing agent [1]: efficacy is most pronounced with four equivalents vs. GSH
